Experiments:
Type in all cases: cell-based
HepG2 cells = assay: Cell viability assay (HepG2 Survival assay, CellTiter-Glo); conditions: 24 hr, cellular ATP levels
Protocol: (§1) HepG2 cells (ATCC, Cat.: HB-8065) were maintained in Growth medium-Eagle's Minimum Essential Medium (Corning, 10-010-CVR), 10% FBS (Gibco, 10099-141), Penicillin (100 units/mL), Streptomycin ([…]). HepG2 cells were incubated at 37° C., 5% CO2. HepG2 cells were plated in black clear bottom 96-well plates (Corning, 3063) at 40,000 cells/well in 100 μL of growth media. After an overnight incubation, the culture media were changed to serum-free OptiMEM media (Gibco, 31985-062), 90 μL/well. Vehicle, PF-06446846 hydrochloride, berberine, or test compound was added to the culture media, 10 μL/well. After 24 hr cellular ATP levels were measured using CellTiter-Glo® 2.0 Assay (Promega, G9242).

PCSK9 = PCSK9 ELISA on HepG2 culture medium; conditions: HepG2 cells, 24 hr
Protocol: as §1, with “flat” for “black clear”, “3599)” for “3063)”, “medium was harvested, and 10 μL of the medium” for “cellular ATP levels”, “used for the PCSK9 ELISA (R&D Systems, SPC900).” for “measured using CellTiter-Glo® 2.0 Assay (Promega, G9242).”

PCSK9 mRNA = assay: RT-Q-PCR analysis of PCSK9 mRNA in HepG2 cells; conditions: Homo sapiens, 24 h, normalized to GAPDH, read-out: HepG2 Q-PCR PCSK9 mRNA level decrease (10 μM)
Protocol: HepG2 cells (ATCC, Cat.: HB-8065) were maintained in Growth medium-Eagle's Minimum Essential Medium (Corning, 10-010-CVR), 10% FBS (Gibco, 10099-141), Penicillin (100 units/mL), Streptomycin ([…]). HepG2 cells were incubated at 37° C., 5% CO2.
Cells were cultured in growth medium as described above and treated with the vehicle, Berberine or test compound for 24 h. The RNA was extracted using the Total RNA mini Kit (Tiangen, Beijing, China) according to the manufacturer's instructions. Reverse transcription was carried out using the High-Capacity cDNA reverse transcription kit (Thermo Fisher Scientific). Quantitative real-time PCR was performed using a reaction mixture containing cDNA, specific primers [PCSK9, 5′-[…]-3′ (forward) and 5′-[…]-3′ (reverse); GAPDH, 5′-[…]-3′ (forward) and 5′-[…]-3′ (reverse)] and Maxima SYBR Green/ROX qPCR Master Mix (Thermo Fisher Scientific). PCR amplification was carried out in a Real-Time PCR System. The real-time PCR conditions were 37° C. 10 min; 95° C. 10 min; 95° C. 15 s, 60° C. 30 s, 72° C. 30 s, 40 cycle. The amount of % RNA was normalized to the GAPDH level in the same samples.

Compound	HepG2 Survival assay (10 μM) (HepG2 cells)	HepG2 PCSK9 ELISA (10 μM) % inhibition (PCSK9)	inhibition at 10 µM (PCSK9 mRNA)
O=C(CN(CC(=O)NC1Cc2ccccc2C1)C(=O)c1cc2ccccc2[nH]1)Nc1ccc(Oc2ccccc2)cc1 [Compound 201-11]	100%	38%	79.3%
O=C(CN(CC(=O)NC1Cc2ccccc2C1)C(=O)c1cc2cccc(F)c2[nH]1)Nc1ccc(Oc2ccc(F)cc2)cc1 [Compound 201-13]	97%	64%	93.3%
CN(C(=O)CN(CC(=O)NC1Cc2ccccc2C1)C(=O)c1cc2cccc(F)c2[nH]1)c1ccc(Oc2ccc(F)cc2)cc1 [Compound 201-14]	93%	41%	89.5%
O=C(CN(CC(=O)NC1Cc2ccccc2C1)C(=O)c1cc2cccc(F)c2[nH]1)Nc1ccc(Oc2ccccc2)cc1 [Compound 201-15]	100%	46%	95.2%
O=C(CN(CC(=O)Nc1ccc(Oc2ccc(F)cc2)cc1)C(=O)c1cc2cc(F)ccc2[nH]1)NCc1ccccc1F [Compound 201-37]	100%	50%	63%
O=C(CN(CC(=O)Nc1ccc(Oc2ccc(F)cc2)cc1)C(=O)c1cc2ccccc2[nH]1)NCc1ccccc1F [Compound 201-41]	100%	72%	75%
O=C(CN(CC(=O)Nc1ccc(Oc2ccccc2)cc1)C(=O)c1cc2ccccc2[nH]1)NCc1ccccc1F [Compound 201-43]	100%	60%	77%
O=C(CN(CC(=O)Nc1ccc(Oc2ccc(F)cc2)cc1)C(=O)c1cc2cccc(F)c2[nH]1)NCc1ccccc1F [Compound 201-45]	100%	60%	80%
CN(C(=O)CN(CC(=O)NCc1ccccc1F)C(=O)c1cc2cccc(F)c2[nH]1)c1ccc(Oc2ccc(F)cc2)cc1 [Compound 201-46]	100%	33%	46%
O=C(CN(CC(=O)Nc1ccc(Oc2ccccc2)cc1)C(=O)c1cc2cccc(F)c2[nH]1)NCc1ccccc1F [Compound 201-47]	99%	70%	90%
CN(Cc1ccccc1)C(=O)CN(CC(=O)Nc1ccc(Oc2ccc(F)cc2)cc1)C(=O)c1cc2c(F)cccc2[nH]1 [Compound 201-49]	100%	50%	77%
CN(Cc1ccccc1)C(=O)CN(CC(=O)N(C)c1ccc(Oc2ccc(F)cc2)cc1)C(=O)c1cc2c(F)cccc2[nH]1 [Compound 201-50]	100%	47%	77%
CN(Cc1ccccc1)C(=O)CN(CC(=O)Nc1ccc(Oc2ccccc2)cc1)C(=O)c1cc2c(F)cccc2[nH]1 [Compound 201-51]	93%	55%	75%
CN(Cc1ccccc1)C(=O)CN(CC(=O)N(C)c1ccc(Oc2ccccc2)cc1)C(=O)c1cc2c(F)cccc2[nH]1 [Compound 201-52]	100%	45%	79%
CN(Cc1ccccc1)C(=O)CN(CC(=O)Nc1ccc(Oc2ccc(F)cc2)cc1)C(=O)c1cc2cc(F)ccc2[nH]1 [Compound 201-53]	100%	50%	80%
CN(Cc1ccccc1)C(=O)CN(CC(=O)N(C)c1ccc(Oc2ccc(F)cc2)cc1)C(=O)c1cc2cc(F)ccc2[nH]1 [Compound 201-54]	100%	52%	61%

Compound	HepG2 Survival assay (10 μM) (HepG2 cells)	HepG2 PCSK9 ELISA (10 μM) % inhibition (PCSK9)	inhibition at 10 µM (PCSK9 mRNA)
CN(Cc1ccccc1F)C(=O)CN(CC(=O)Nc1ccc(Oc2ccc(F)cc2)cc1)C(=O)c1cc2cccc(F)c2[nH]1 [Compound 201-69]	92%	80%	78%
CN(Cc1ccccc1F)C(=O)CN(CC(=O)Nc1ccc(Oc2ccc(F)cc2)cc1)C(=O)c1cc2ccccc2o1 [Compound 201-85]	100%	46%	70%
CN(Cc1ccccc1F)C(=O)CN(CC(=O)Nc1ccc(Oc2ccccc2)cc1)C(=O)c1cc2ccccc2o1 [Compound 201-91]	100%	40%	58%
CN(Cc1ccccc1F)C(=O)CN(CC(=O)Nc1ccc(Oc2ccc(F)c(F)c2)cc1)C(=O)c1cc2ccccc2o1 [Compound 201-97]	100%	48%	37%
CN(Cc1ccccc1F)C(=O)CN(CC(=O)Nc1ccc(Oc2ccc(F)cc2)cc1)C(=O)c1ccc(C(F)(F)F)o1 [Compound 201-103]	100%	86%	85%
CN(Cc1ccccc1F)C(=O)CN(CC(=O)Nc1ccc(Oc2ccccc2)cc1)C(=O)c1ccco1 [Compound 201-127]	90%	74%	92%
CN(Cc1ccccc1F)C(=O)CN(CC(=O)Nc1ccc(Oc2ccc(F)c(F)c2)cc1)C(=O)c1ccco1 [Compound 201-133]	100%	98%	92%
O=C(CN(CC(=O)Nc1ccc(Oc2ccc(C(F)(F)F)cc2)cc1)C(=O)c1ccc(C(F)(F)F)o1)NCc1ccccc1 [Compound 201-209]	92%	91%	–
CC(C)c1ccc(Oc2ccc(NC(=O)CN(CC(=O)NC3CCCC3)C(=O)c3ccc(C(F)(F)F)[nH]3)cc2)cc1 [Compound 201-235]	101%	73%	72%
N#Cc1cccc2cc(C(=O)N(CC(=O)Nc3ccc(Oc4ccc(C(F)(F)F)cc4)cc3)CC(=O)NC3CCCC3)[nH]c12 [Compound 201-237]	98%	72%	77%
CC(C)c1ccc(Oc2ccc(NC(=O)CN(CC(=O)NCc3ccccc3)C(=O)c3ccc(C(F)(F)F)[nH]3)cc2)cc1 [Compound 201-249]	97%	85%	–
O=C(CN(CC(=O)Nc1ccc(Oc2ccc(C(F)(F)F)cc2)cc1)C(=O)c1cc2cccc(F)c2[nH]1)Nc1ccccc1 [Compound 201-255]	101%	87%	72%
O=C(CN(CC(=O)Nc1ccc(Oc2ccccc2)cc1)C(=O)c1cc2cccc(F)c2[nH]1)Nc1ccccc1 [Compound 201-258]	97%	69%	–
CC(C)c1ccc(Oc2ccc(NC(=O)CN(CC(=O)Nc3ccccc3)C(=O)c3ccc(C(F)(F)F)o3)cc2)cc1 [Compound 201-261]	99%	60%	–
O=C(CN(CC(=O)Nc1ccc(Oc2ccc(C(F)(F)F)cc2)cc1)C(=O)c1ccc(C(F)(F)F)[nH]1)Nc1ccccc1 [Compound 201-263]	88%	84%	–
O=C(CN(CC(=O)Nc1ccc(Oc2ccc(F)c(F)c2)cc1)C(=O)c1cc2cccc(F)c2[nH]1)Nc1ccccc1 [Compound 201-274]	98%	77%	88%

Reference: US20230122967A1, “NOVEL COMPOUNDS AS INHIBITORS OF PCSK9” (SHENGKE PHARMACEUTICALS (JIANGSU) LTD., priority 2020, published 2023)
